Data reported in patent US20020161052A1, “Terminally-branched polymeric linkers and polymeric conjugates containing the same” (priority 2001, published 2002).

What was measured:
[1] = system: P388/O (murine lymphoid neoplasm) cell line; assay: In vitro bioassay, cell growth by Alamar Blue; assay type: cell-based; conditions: Mus musculus, 72 h; P388/O cells, three days, 37° C., in duplicate; SD ± 10%
Description: A series of in vitro assays were conducted to determine the IC50 for unmodified Ara-C and compound 10 using the P388/O (murine lymphoid neoplasm, Southern Research Institute) cell line. The P388/0 cells were grown in RPMI 1640 medium (Whittaker Bioproducts, Walkersville, Md.) +10% FBS (Hyclone Inc., Logan UT). Bioassays were performed in their respective media containing antibiotics and fungizone.
Ara-C was dissolved in DMSO and diluted to the appropriate concentration in culture media. The PEG-Ara-C compounds were dissolved in water and diluted to the appropriate concentrations in culture media.
The assays were performed in duplicate in 96-well microtiter cell culture plates. Two fold serial dilution of the compounds were done in the microtiter plates. Cells were detached by incubating with 0.1% Trypsin/Versene at 37°. Trypsin was inactivated by adding the appropriate media for each cell line containing 10% FBS. To each well of the microtiter plates, 10,000 cells were added. After three days, cell growth was measured by addition of a metabolic indicator dye, Alamar Blue, according to the manufacturer's protocol. The IC50 value for the test compounds and reference compound are provided above in the Table.

[2] = system: LX-1; assay: LX-1 subcutaneous tumor in athymic nude mice; assay type: in vivo; conditions: 100 mg/kg, i.v. q3d×4, athymic nude mice; mean baseline tumor volume 1000 mm^3
Description: Athymic nude mice were implanted subcutaneous with a 4-5 mm^3 tissue fragment of LX-1 collected from donor mice. The tumor trocar site was observed twice weekly and measured once palpable. The tumor volume for each mouse was determined by measuring two dimensions with calipers and calculated using the formula: tumor volume=(length×width^2)/2. […] The mice were sorted to evenly distribute tumor size, grouped into 4 to 6 mice/group, and ear punched for permanent identification. Drugs were administered intravenously q3d×4 (Day 1, 4, 7 and 10) via the tail vein at an approximate rate of 0.5 mL per minute.

IC50 [1]: 10 nM
Compound: Nc1ccn([C@@H]2O[C@H](CO)[C@@H](O)[C@@H]2O)c(=O)n1 [Ara-C, cytosine arabinoside]
LX-1 % T/C [2]: 74.0%
